pIC50: −log10 of the molar value.
Tests used:
Liver = assay: Metabolic stability in BALB/c mouse liver microsomes at 1 umol/l by LC-MS/MS analysis; assay type: ADME; conditions: 1 µM
A549 = assay: Cytotoxicity against human A549 cells after 96 hrs by microplate reader analysis; assay type: functional, cell-based; conditions: A549, 96 h
HCT-116 [1] = assay: Cytotoxicity against human HCT116 cells after 96 hrs by microplate reader analysis; assay type: functional, cell-based; conditions: HCT-116, 96 h
Mus musculus [2] = assay: Toxicity in BALB/c mouse assessed as mortality at 20 mg/kg/day, iv administered on day 1, 5 and 9; assay type: organism-based; set-up: route intravenous; conditions: in vivo
Mus musculus [3] = assay: Toxicity in BALB/c mouse assessed as mortality at 40 mg/kg/day, iv administered on day 1, 5 and 9; assay type: organism-based; set-up: route intravenous; conditions: in vivo
HCT-116 [4] = assay: Antitumor activity against human HCT116 cells xenografted in BALB/c mouse assessed as tumor growth inhibition at 40 mg/kg/day, iv administered on day 1, 5 and 9 relative to control; assay type: functional; conditions: HCT-116, 24 h, read-out: TGI
HT-29 = assay: Cytotoxicity against human HT-29 cells after 96 hrs by microplate reader analysis; assay type: functional, cell-based; conditions: HT-29, 96 h
HCT-116 [5] = assay: Antitumor activity against human HCT116 cells xenografted in BALB/c mouse assessed as tumor growth inhibition at 20 mg/kg/day, iv administered on day 1, 5 and 9 relative to control; assay type: functional; conditions: HCT-116, 24 h, read-out: TGI
Mus musculus [6] = assay: Toxicity in BALB/c mouse assessed as mortality at 100 mg/kg/day, iv administered on day 1, 5 and 9; assay type: organism-based; set-up: route intravenous; conditions: in vivo
Mus musculus [7] = assay: Toxicity in BALB/c mouse assessed as mortality at 50 mg/kg/day, iv administered on day 1, 5 and 9; assay type: organism-based; set-up: route intravenous; conditions: in vivo
HCT-116 [8] = assay: Antitumor activity against human HCT116 cells xenografted in BALB/c mouse assessed as tumor growth inhibition at 50 mg/kg/day, iv administered on day 1, 5 and 9 relative to control; assay type: functional; conditions: HCT-116, 24 h, read-out: TGI
HCT-116 [9] = assay: Antitumor activity against human HCT116 cells xenografted in BALB/c mouse assessed as tumor growth inhibition at 100 mg/kg/day, iv administered on day 1, 5 and 9 relative to control; assay type: functional; conditions: HCT-116, 24 h, read-out: TGI
Mus musculus [10] = assay: Toxicity in BALB/c mouse assessed as mortality at 12.5 mg/kg/day, iv administered on day 1, 5 and 9; assay type: organism-based; set-up: route intravenous; conditions: in vivo
HCT-116 [11] = assay: Antitumor activity against human HCT116 cells xenografted in BALB/c mouse assessed as tumor growth inhibition at 25 mg/kg/day, iv administered on day 1, 5 and 9 relative to control; assay type: functional; conditions: HCT-116, 24 h, read-out: TGI
HCT-116 [12] = assay: Antitumor activity against human HCT116 cells xenografted in BALB/c mouse assessed as tumor growth inhibition at 12.5 mg/kg/day, iv administered on day 1, 5 and 9 relative to control; assay type: functional; conditions: HCT-116, 24 h, read-out: TGI
HCT-116 [13] = assay: Antitumor activity against human HCT116 cells xenografted in BALB/c mouse assessed as tumor growth inhibition at 2.5 mg/kg/day, iv administered on day 1, 5 and 9 relative to control; assay type: functional; conditions: HCT-116, 24 h, read-out: TGI
HCT-116 [14] = assay: Antitumor activity against human HCT116 cells xenografted in BALB/c mouse assessed as tumor growth inhibition at 5 mg/kg/day, iv administered on day 1, 5 and 9 relative to control; assay type: functional; conditions: HCT-116, 24 h, read-out: TGI
Mus musculus [15] = assay: Toxicity in BALB/c mouse assessed as mortality at 2.5 mg/kg/day, iv administered on day 1, 5 and 9; assay type: organism-based; set-up: route intravenous; conditions: in vivo
Mus musculus [16] = assay: Toxicity in BALB/c mouse assessed as mortality at 5 mg/kg/day, iv administered on day 1, 5 and 9; assay type: organism-based; set-up: route intravenous; conditions: in vivo
HCT-116 [17] = assay: Antitumor activity against human HCT116 cells xenografted in BALB/c mouse assessed as tumor growth inhibition at 15 mg/kg/day, iv administered on day 1, 5 and 9 relative to control; assay type: functional; conditions: HCT-116, 24 h, read-out: TGI
HCT-116 [18] = assay: Antitumor activity against human HCT116 cells xenografted in BALB/c mouse assessed as tumor growth inhibition at 1.875 mg/kg/day, iv administered on day 1, 5 and 9 relative to control; assay type: functional; conditions: HCT-116, 24 h, read-out: TGI
Mus musculus [19] = assay: Toxicity in BALB/c mouse assessed as mortality at 3.75 mg/kg/day, iv administered on day 1, 5 and 9; assay type: organism-based; set-up: route intravenous; conditions: in vivo
Mus musculus [20] = assay: Toxicity in BALB/c mouse assessed as mortality at 15 mg/kg/day, iv administered on day 1, 5 and 9; assay type: organism-based; set-up: route intravenous; conditions: in vivo
HCT-116 [21] = assay: Antitumor activity against human HCT116 cells xenografted in BALB/c mouse assessed as tumor growth inhibition at 7.5 mg/kg/day, iv administered on day 1, 5 and 9 relative to control; assay type: functional; conditions: HCT-116, 24 h, read-out: TGI
HCT-116 [22] = assay: Antitumor activity against human HCT116 cells xenografted in BALB/c mouse assessed as tumor growth inhibition at 3.75 mg/kg/day, iv administered on day 1, 5 and 9 relative to control; assay type: functional; conditions: HCT-116, 24 h, read-out: TGI
Mus musculus [23] = assay: Toxicity in BALB/c mouse assessed as mortality at 7.5 mg/kg/day, iv administered on day 1, 5 and 9; assay type: organism-based; set-up: route intravenous; conditions: in vivo
Mus musculus [24] = assay: Toxicity in BALB/c mouse assessed as mortality at 1.875 mg/kg/day, iv administered on day 1, 5 and 9; assay type: organism-based; set-up: route intravenous; conditions: in vivo
HCT-116 [25] = assay: Antitumor activity against human HCT116 cells xenografted in BALB/c mouse assessed as tumor growth inhibition at 10 mg/kg/day, iv administered on day 1, 5 and 9 relative to control; assay type: functional; conditions: HCT-116, 24 h, read-out: TGI
Mus musculus [26] = assay: Toxicity in BALB/c mouse assessed as mortality at 10 mg/kg/day, iv administered on day 1, 5 and 9; assay type: organism-based; set-up: route intravenous; conditions: in vivo
Mus musculus [27] = assay: Toxicity in BALB/c mouse assessed as mortality at 0.75 mg/kg/day, iv administered on day 1, 5 and 9; assay type: organism-based; set-up: route intravenous; conditions: in vivo
Mus musculus [28] = assay: Toxicity in BALB/c mouse assessed as mortality at 1.5 mg/kg/day, iv administered on day 1, 5 and 9; assay type: organism-based; set-up: route intravenous; conditions: in vivo
HCT-116 [29] = assay: Antitumor activity against human HCT116 cells xenografted in BALB/c mouse assessed as tumor growth inhibition at 1.5 mg/kg/day, iv administered on day 1, 5 and 9 relative to control; assay type: functional; conditions: HCT-116, 24 h, read-out: TGI
HCT-116 [30] = assay: Antitumor activity against human HCT116 cells xenografted in BALB/c mouse assessed as tumor growth inhibition at 0.75 mg/kg/day, iv administered on day 1, 5 and 9 relative to control; assay type: functional; conditions: HCT-116, 24 h, read-out: TGI

Compound | Stability (Liver) [mL/min/mg] | pIC50 (A549) | pIC50 (HCT-116 [1]) | pIC50 (HT-29) | IC50 (A549) [µg/mL] | further results
COc1c(Cl)c2c(c(OC)c1OC)-c1ccc(OC)c(=O)cc1[C@@H](NC(=O)CO)CC2 | 0.001 | 7.79 | 8.09 | 8.10 |  | Activity (Mus musculus [2]): Non-toxic; Activity (Mus musculus [3]): Non-toxic; inhibition in vivo at 40 mg/kg/day (HCT-116 [4]): 66.7%; inhibition in vivo at 20 mg/kg/day (HCT-116 [5]): 43.6%
COc1c(Cl)c2c(c(OC)c1OC)-c1ccc(OC)c(=O)cc1[C@@H](NC(=O)C(C)(C)O)CC2 | 0.005 | 7.71 | 8.09 | 8.11 |  | Activity (Mus musculus [6]): Non-toxic; Activity (Mus musculus [7]): Non-toxic; inhibition in vivo at 50 mg/kg/day (HCT-116 [8]): 58.5%; inhibition in vivo at 100 mg/kg/day (HCT-116 [9]): 67.3%
CCC(=O)N[C@H]1CCc2c(Cl)c(OC)c(OC)c(OC)c2-c2ccc(OC)c(=O)cc21 | 0.302 | 8.11 | 8.12 | 8.48 |  | Activity (Mus musculus [10]): Non-toxic; inhibition in vivo at 25 mg/kg/day (HCT-116 [11]): 76.1%; inhibition in vivo at 12.5 mg/kg/day (HCT-116 [12]): 57.3%
COc1c(Cl)c2c(c(OC)c1OC)-c1ccc(OC)c(=O)cc1[C@@H](NC(=O)c1cccc(N(C)C)c1)CC2 | 0.122 | 8.19 | 8.80 | 8.85 |  | inhibition in vivo at 2.5 mg/kg/day (HCT-116 [13]): 31.4%; inhibition in vivo at 5 mg/kg/day (HCT-116 [14]): 25.3%; Activity (Mus musculus [15]): Non-toxic; Activity (Mus musculus [16]): Non-toxic
COc1c(Cl)c2c(c(OC)c1OC)-c1ccc(OC)c(=O)cc1[C@@H](NC(C)=O)CC2 | 0.028 |  |  |  |  | inhibition in vivo at 15 mg/kg/day (HCT-116 [17]): 76.5%; inhibition in vivo at 1.875 mg/kg/day (HCT-116 [18]): 36.7%; Activity (Mus musculus [19]): Non-toxic; Activity (Mus musculus [20]): Non-toxic; inhibition in vivo at 7.5 mg/kg/day (HCT-116 [21]): 62.6%; inhibition in vivo at 3.75 mg/kg/day (HCT-116 [22]): 56.4%; Activity (Mus musculus [23]): Non-toxic; Activity (Mus musculus [24]): Non-toxic
COc1c(Cl)c2c(c(OC)c1OC)-c1ccc(OC)c(=O)cc1[C@@H](NC(=O)C(F)(F)F)CC2 | 0.339 | 8.74 | 8.82 | 8.82 |  | inhibition in vivo at 5 mg/kg/day (HCT-116 [14]): 30.6%; Activity (Mus musculus [16]): Non-toxic; inhibition in vivo at 10 mg/kg/day (HCT-116 [25]): 62.7%; Activity (Mus musculus [26]): Non-toxic
COc1c(Cl)c2c(c(OC)c1OC)-c1ccc(OC)c(=O)cc1[C@@H](NC(=O)CS)CC2 |  | 6.40 | 6.72 | 6.68 |  | 
COc1c(Cl)c2c(c(OC)c1OC)-c1ccc(OC)c(=O)cc1[C@@H](NC(=O)c1cc([N+](=O)[O-])cc([N+](=O)[O-])c1)CC2 |  | 7.51 | 8.17 | 8.30 |  | 
COc1c(Cl)c2c(c(OC)c1OC)-c1ccc(OC)c(=O)cc1[C@@H](NC(=O)c1ccccc1[N+](=O)[O-])CC2 |  | 7.25 | 7.52 | 7.50 |  | 
CCCCCCC(=O)N[C@H]1CCc2c(Cl)c(OC)c(OC)c(OC)c2-c2ccc(OC)c(=O)cc21 |  | 7.30 | 7.43 | 7.42 |  | 
COc1cc2c(c(OC)c1OC)-c1ccc(OC)c(=O)cc1[C@@H](NC(C)=O)CC2 [COLCHICINE] | 0.001 |  |  |  |  | Activity (Mus musculus [27]): Non-toxic; Activity (Mus musculus [28]): Non-toxic; inhibition in vivo at 1.5 mg/kg/day (HCT-116 [29]): 92.6%; inhibition in vivo at 0.75 mg/kg/day (HCT-116 [30]): 14%
COc1c(Cl)c2c(c(OC)c1OC)-c1ccc(OC)c(=O)cc1[C@@H](N)CC2 |  | 6.62 | 6.68 | 6.65 |  | 
COc1c(Cl)c2c(c(OC)c1OC)-c1ccc(OC)c(=O)cc1[C@@H](NC(=O)CCC(=O)O)CC2 |  |  | 5.18 | 5.20 | > 5 | 
COc1c(Cl)c2c(c(OC)c1OC)-c1ccc(OC)c(=O)cc1[C@@H](NC(=O)c1ccccc1C#N)CC2 |  | 6.85 | 6.98 | 7.30 |  | 
COc1c(Cl)c2c(c(OC)c1OC)-c1ccc(OC)c(=O)cc1[C@@H](NC(=O)CC(C)C)CC2 |  | 7.39 | 7.63 | 7.79 |  | 
COc1c(Cl)c2c(c(OC)c1OC)-c1ccc(OC)c(=O)cc1[C@@H](NC(=O)[C@@H](C)O)CC2 |  | 7.71 | 8.11 | 8.14 |  | 
COc1ccc(C(=O)N[C@H]2CCc3c(Cl)c(OC)c(OC)c(OC)c3-c3ccc(OC)c(=O)cc32)c(OC)c1 |  | 7.07 | 7.24 | 7.27 |  | 
COc1ccccc1C(=O)N[C@H]1CCc2c(Cl)c(OC)c(OC)c(OC)c2-c2ccc(OC)c(=O)cc21 |  | 7.88 | 7.58 | 7.90 |  | 
COc1ccc(C(=O)N[C@H]2CCc3c(Cl)c(OC)c(OC)c(OC)c3-c3ccc(OC)c(=O)cc32)cc1 |  | 8.42 | 8.10 | 8.10 |  | 

Source: ChEMBL document CHEMBL3217664, “Synthesis and biological evaluation of 4-chlorocolchicine derivatives as potent anticancer agents with broad effective dosage ranges” (Medchemcomm, 2012)
